Experimental data as given in patent publication US11746374B2, “Methods and platform for screening and selecting metabolites and their receptors” (BOARD OF REGENTS, THE UNIVERSITY OF TEXAS SYSTEM, priority 2017, dated 2023).
“And” between values parts separate entries of the source, which are not always exact repeats. Equal values may be shown once. “Also recorded” adds a separate entry of the source.

Key:
P2X2 = molecular target: T1, P2X2 (Homo sapiens, UniProt Q9UBL9); test: Plate-based aequorin luminescence assay of P2X2 expressed in yeast; format: cell-based; design: expressed in transfected cells; host or cells: Saccharomyces cerevisiae BY4741 dCne1p, genome-integrated under the GAL1 promoter, aequorin on a high-copy plasmid; details: for agonism / gating of P2X2: aequorin luminescence; for EC50: dose-response, area under luminescence curve
T1 sequence (Q9UBL9 1-471): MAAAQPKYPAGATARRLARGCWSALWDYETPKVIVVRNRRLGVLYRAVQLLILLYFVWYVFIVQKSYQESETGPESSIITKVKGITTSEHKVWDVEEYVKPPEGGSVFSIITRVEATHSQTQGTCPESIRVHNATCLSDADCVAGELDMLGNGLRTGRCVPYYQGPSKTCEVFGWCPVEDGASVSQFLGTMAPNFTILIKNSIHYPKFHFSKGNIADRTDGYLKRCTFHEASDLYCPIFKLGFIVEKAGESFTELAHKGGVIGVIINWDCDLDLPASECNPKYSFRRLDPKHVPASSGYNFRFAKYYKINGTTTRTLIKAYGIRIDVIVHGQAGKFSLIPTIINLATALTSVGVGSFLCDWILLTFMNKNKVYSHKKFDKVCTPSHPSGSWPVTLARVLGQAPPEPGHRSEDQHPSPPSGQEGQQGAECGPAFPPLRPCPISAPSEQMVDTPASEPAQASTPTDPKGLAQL
Description: Ion channel activity in yeast was tested with the purinergic P2X ion channel family. Channel gating was assessed by an aequorin assay in which aequorin is co-expressed with the receptor and, upon addition of the prosthetic group coelenterazine and addition of calcium, blue light is released. The aequorin-based functional assay was performed in all seven P2X receptors (FIG. 8). P2X1-7 were integrated into the chromosome to mitigate copy number variation between clones and were induced with galactose with the pGal1 promoter. […] Among those receptors that didn't work, it was suspected that improvements in expression and trafficking can improve functionality. For example, by modulating trafficking domains within the P2X4 receptor, aggregation was reduced in vesicles (FIG. 9), and it is believed that this tactic can be employed in other receptors. […] This can be because P2X2 has the slowest desensitization rates of the family (and is often considered “non-desensitizing”) and has the highest unitary conductance (30 pS).
To determine whether or not this truncated channel gated in yeast, an aequorin-based functional assay was used. Here aequorin, a bioluminescent protein, emits a photon upon binding calcium. This is done with the aid of coelenterazine, which must be added exogenously to yeast. The reaction is not catalytic, and the off-rate of calcium is too slow to observe on the timescales utilized in our assays. To optimize conditions for expression of both the receptor and reporter, a combination of integration, low-copy, and high-copy vectors was used. At this point, it was only possible to produce a signal upon addition of ATP, the native ligand, when both the receptor and reporter were expressed on high-copy plasmids (FIG. 56).
BY4741ΔCne1p cells were transformed with vectors containing P2X variants. Transformants were validated and made competent for a subsequent transformation with a vector containing aequorin under the expression of the constitutive PGK2 promoter. Overnight cells were induced with 2% […] for 20 hours. Following receptor expression, cells were collected by centrifugation and concentrated to 500 μL. The concentrated cells were then incubated with 5 μL of 1 mg/mL coelenterazine for 30 minutes at room temperature. Washed cells were then resuspended in softening buffer (1 M Sorbitol, 25 mM EDTA, 50 mM DTT), followed by washes in 1 M sorbitol and water. Cells were then resuspended in 50 mM MES/Tris pH 6.5 and aliquoted into a 96-well plate. Using an F500, 25 μL of cells were monitored for luminescence for 5 seconds. Upon addition of ligand or buffer (100 μL), cells were monitored for luminescence for varying times. Cell lysis was performed with the addition of 100 μL Tween20. For inhibition, varying concentrations of suramin were incubated with cells. Luminescence was monitored before and after the addition of 100 μL of 10 μM ATP. Areas under the curve were calculated and plotted against a negative control to determine the IC50.

[1] = molecular target: T2, 3,5,7-trioxododecanoyl-CoA synthase (OLS) (Cannabis sativa, UniProt B1Q2B6); details: cited from earlier work
T2 sequence (B1Q2B6 1-385): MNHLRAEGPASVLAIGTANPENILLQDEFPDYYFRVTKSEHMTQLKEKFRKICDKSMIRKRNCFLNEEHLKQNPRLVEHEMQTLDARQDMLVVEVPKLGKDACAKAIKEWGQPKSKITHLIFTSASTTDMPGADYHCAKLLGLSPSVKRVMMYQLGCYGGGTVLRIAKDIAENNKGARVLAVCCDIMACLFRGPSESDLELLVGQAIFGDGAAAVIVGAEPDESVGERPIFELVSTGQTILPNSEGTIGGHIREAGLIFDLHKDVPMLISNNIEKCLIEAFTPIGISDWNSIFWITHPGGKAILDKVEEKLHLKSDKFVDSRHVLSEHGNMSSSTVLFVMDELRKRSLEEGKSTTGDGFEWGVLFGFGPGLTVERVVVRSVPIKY

BY4741 = test: Metabolite toxicity determined by growth assays; format: cell-based, Saccharomyces cerevisiae; details: 4 mM of each metabolite, compared to synthetic media only
Description: Measurements of cell density (OD600) were taken in 10 min intervals. Each condition was tested in triplicate. For hexanoate growth conditions of aromatic prenyltransferase variants, transformed cells were seeded for 48 hrs and diluted 1:25 in 96-well grow-blocks in media containing 1-5 mM hexanoate. Measurements of cell density were taken in 24 hr intervals using an F500 plate reader. Final screening was performed with 10 mM hexanoate, 1% acetate supplemented synthetic complete media in 50 mL culture volumes.

[2] = molecular target: T3, CsAAE1 Hexanoyl CoA Synthase (Cannabis sativa, UniProt H9A1V3); details: cited from earlier work
T3 sequence (H9A1V3 1-720): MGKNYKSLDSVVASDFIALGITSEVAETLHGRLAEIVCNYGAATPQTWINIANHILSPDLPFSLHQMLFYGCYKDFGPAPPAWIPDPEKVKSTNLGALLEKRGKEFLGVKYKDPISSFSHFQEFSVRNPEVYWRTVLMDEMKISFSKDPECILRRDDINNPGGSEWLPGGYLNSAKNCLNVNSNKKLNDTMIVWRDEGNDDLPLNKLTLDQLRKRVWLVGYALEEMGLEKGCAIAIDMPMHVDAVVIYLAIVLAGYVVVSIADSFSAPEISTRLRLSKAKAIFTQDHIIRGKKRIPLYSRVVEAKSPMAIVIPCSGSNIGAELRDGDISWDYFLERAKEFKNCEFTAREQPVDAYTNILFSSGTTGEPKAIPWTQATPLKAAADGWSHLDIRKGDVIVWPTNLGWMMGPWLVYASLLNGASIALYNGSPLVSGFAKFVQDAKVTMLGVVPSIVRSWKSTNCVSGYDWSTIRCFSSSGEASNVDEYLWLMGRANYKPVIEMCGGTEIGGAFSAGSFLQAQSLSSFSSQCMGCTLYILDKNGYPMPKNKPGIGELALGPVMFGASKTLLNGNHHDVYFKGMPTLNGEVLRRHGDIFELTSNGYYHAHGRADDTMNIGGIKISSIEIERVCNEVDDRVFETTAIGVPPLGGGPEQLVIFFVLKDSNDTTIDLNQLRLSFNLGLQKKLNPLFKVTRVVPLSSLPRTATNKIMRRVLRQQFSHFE

wild-type CB2 receptor = wild-type CB2 receptor (Homo sapiens, UniProt P34972); details: Gertsch 2008; cited from earlier work
Sequence of wild-type CB2 receptor (P34972 whole entry): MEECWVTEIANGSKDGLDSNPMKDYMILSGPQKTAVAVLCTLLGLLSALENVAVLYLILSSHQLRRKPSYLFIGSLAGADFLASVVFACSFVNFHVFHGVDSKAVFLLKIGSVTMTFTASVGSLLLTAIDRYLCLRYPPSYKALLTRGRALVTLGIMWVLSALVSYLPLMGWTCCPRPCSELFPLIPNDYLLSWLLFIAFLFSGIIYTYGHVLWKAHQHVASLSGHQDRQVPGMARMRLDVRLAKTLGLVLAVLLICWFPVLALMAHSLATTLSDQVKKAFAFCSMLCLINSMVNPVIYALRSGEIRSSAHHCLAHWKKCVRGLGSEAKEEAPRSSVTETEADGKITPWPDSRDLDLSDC

human CB2 receptor = molecular target: T4, human CB2 receptor (Homo sapiens, UniProt P34972); format: cell-based; details: exogenously added ligand; GFP or zsGreen1 reporter
T4 construct: expressed in transfected cells; host or cells: Saccharomyces cerevisiae strains JG03-, JG04-, JG05-2.0 (zsGreen1 reporter), high-copy plasmid
T4 sequence (P34972 whole entry): as above
Description: The ability of three of strains to couple to the human CB2 receptor expressed on a high-copy number plasmid was tested. Ga subunits that were predicted to couple to the receptor (Shim et al., 2013) were used. The dose-response of 2-arachidonyl glycerol, the native endocannabinoid, in strains differing only in the terminal 5 amino acids of the Gα protein. Control receptors were built that contained stop codons in the middle of the gene. These are referred to as ‘broken’ receptors.
Cells were washed 3 times and resuspended in PBS. Fluorescent (485 nm/515 nm) and cell density (600 nm) measurements were taken on a Cytation 5. Data were plotted and analyzed using SigmaPlot10. For CB2, strains JG03-, JG04-, and JG05-2.0 were transformed and treated the same. Broken receptor (stop codons) were also included in these assays.

[3] = molecular target: T5, cannabidiolic acid synthase (CBDA synthase) (Cannabis sativa, UniProt A6P6V9); details: cited from earlier work
T5 sequence (A6P6V9 29-544): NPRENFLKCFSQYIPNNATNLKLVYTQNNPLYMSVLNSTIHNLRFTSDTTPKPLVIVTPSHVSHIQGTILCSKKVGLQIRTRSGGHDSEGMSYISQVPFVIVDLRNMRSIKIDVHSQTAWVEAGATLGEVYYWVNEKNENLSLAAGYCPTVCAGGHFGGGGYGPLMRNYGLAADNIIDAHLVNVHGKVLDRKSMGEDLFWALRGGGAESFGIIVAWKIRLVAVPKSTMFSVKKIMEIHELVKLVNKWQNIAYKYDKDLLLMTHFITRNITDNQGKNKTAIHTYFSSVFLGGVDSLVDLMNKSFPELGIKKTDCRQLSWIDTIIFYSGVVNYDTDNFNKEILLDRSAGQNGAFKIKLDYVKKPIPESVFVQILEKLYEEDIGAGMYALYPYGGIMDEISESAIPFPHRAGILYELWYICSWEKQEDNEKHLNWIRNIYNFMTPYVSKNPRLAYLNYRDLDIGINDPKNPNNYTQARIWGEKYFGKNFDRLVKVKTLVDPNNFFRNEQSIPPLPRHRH

[4] = molecular target: T6, Tetrahydrocannabinolic acid synthase (THCA synthase) WT (Cannabis sativa, UniProt Q8GTB6); details: cited from earlier work
T6 sequence (Q8GTB6 29-545): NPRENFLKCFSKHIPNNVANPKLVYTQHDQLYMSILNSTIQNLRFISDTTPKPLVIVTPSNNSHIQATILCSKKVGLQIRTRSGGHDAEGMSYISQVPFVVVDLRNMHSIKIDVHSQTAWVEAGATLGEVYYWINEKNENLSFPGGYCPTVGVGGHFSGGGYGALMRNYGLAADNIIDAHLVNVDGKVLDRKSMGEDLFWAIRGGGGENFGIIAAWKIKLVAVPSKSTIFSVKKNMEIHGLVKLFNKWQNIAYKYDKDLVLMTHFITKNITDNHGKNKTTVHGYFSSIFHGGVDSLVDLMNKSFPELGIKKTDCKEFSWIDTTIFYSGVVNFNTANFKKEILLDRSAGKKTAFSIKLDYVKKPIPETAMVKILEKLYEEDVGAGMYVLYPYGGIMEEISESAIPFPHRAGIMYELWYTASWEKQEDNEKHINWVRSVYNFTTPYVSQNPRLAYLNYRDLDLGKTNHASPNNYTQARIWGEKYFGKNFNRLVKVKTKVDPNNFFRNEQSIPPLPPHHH

Compound: Nc1ncnc2c1ncn2[C@@H]1O[C@H](COP(=O)(O)OP(=O)(O)NP(=O)(O)O)[C@@H](O)[C@H]1O [AMP-PNP, adenylyl-imidodiphosphate]
- agonism / gating of P2X2 (P2X2): did not gate P2X2

Compound: CCCCCC(=O)CC(=O)CC(=O)CC(=O)SCCNC(=O)CCNC(=O)[C@H](O)C(C)(C)COP(=O)(O)OP(=O)(O)OC[C@H]1O[C@@H](n2cnc3c(N)ncnc32)[C@H](O)[C@@H]1OP(=O)(O)O [3,5,7-trioxododecanoyl-CoA]
- Km [1]: 56.9 µM
- kcat [1]: 0.0577 s⁻¹

Compound: C=C(C)[C@@H]1CCC(C)=C[C@H]1c1c(O)cc(CCCCC)cc1O [CBD, cannabidiol]
- effect on yeast growth (BY4741): modest growth defect; also recorded: far less inhibitory

Compound: CCCCCc1cc(O)cc(O)c1 [olivetol]
- effect on yeast growth (BY4741): severely inhibit growth

Compound: Nc1nc(Cl)nc2c1ncn2[C@@H]1O[C@H](COP(=O)(O)OP(=O)(O)OP(=O)(O)O)[C@@H](O)[C@H]1O [2-Chloro ATP, 2-Chloro-Adenosinetriphosphate]
- agonism / gating of P2X2 (P2X2): full agonist behavior
- EC50 (P2X2): 26.7 ± 1.5 µM

Compound: CCCCCC(=O)O [Hexanoate, Hexanoic acid]
- Km [2]: 3700 µM
- kcat [2]: 2.0 s⁻¹
- effect on yeast growth (BY4741): severely inhibit growth
- effect on yeast growth (BY4741; listed as Hexanoic acid): strongly inhibit growth

Compound: C=C1CC/C=C(\C)CC[C@@H]2[C@@H]1CC2(C)C [β-caryophyllene]
- detectable level of activation with the wild-type CB2 receptor (wild-type CB2 receptor): 1.9 µM
- reporter response of CB2-expressing yeast to ligand (human CB2 receptor): dose-dependent up-regulation of GFP expression; also recorded: responded to high concentration

Compound: 2′(3′)-O-(4-Benzoylbenzoyl)adenosine-5′-triphosphate [BzATP]
- amplitude of generated signal lower than either ATP or 2-Cl-ATP (P2X2): 3 orders of magnitude
- duration that the channel remains open, longer (P2X2): ~10 fold
- peak amplitude relative to that achieved with ATP (P2X2): approximately 20%
- agonism / gating of P2X2 (P2X2): partial agonism
- EC50 (P2X2): 29.1 ± 6 µM

Compound: CCCCCC(=O)SCCNC(=O)CCNC(=O)[C@H](O)C(C)(C)COP(=O)(O)OP(=O)(O)OC[C@H]1O[C@@H](n2cnc3c(N)ncnc32)[C@H](O)[C@@H]1OP(=O)(O)O [Hexanoyl-CoA]
- Km [1]: 63.1 µM and 60.8 µM

Compound: CCCCCc1cc(O)c(C/C=C(\C)CCC=C(C)C)c(O)c1C(=O)O [CBGA, Cannabigerolic acid]
- Km [3]: 137 µM
- kcat [3]: 0.19 s⁻¹
- Km [4]: 134 µM
- kcat [4]: .201 s⁻¹
- effect on yeast growth (BY4741): modest growth defect; also recorded: far less inhibitory

Compound: CCCCCc1cc(O)cc(O)c1C(=O)O [olivetolic acid]
- effect on yeast growth (BY4741): strongly inhibit growth
